From the kinase profiling compilation of Christmann-Franck et al. (2016) come the findings set out here.

SMILES strings stand for the structures.

Holding throughout (test): KINOMEscan competition binding
Holding throughout (conditions): compound 10.0 µM

In assay [1] the target is DDR1 (human) (UniProt Q08345).
Assay [2] concerns EGFR (human), P00533 [746-750 del].
Assay [3] addresses BRAF (human) (UniProt P15056).
Assay [4] concerns PIK3CA (human), P42336 [E545K].
Assay [5] relates to EGFR (human), P00533 [G719S].
In assay [6] the target is EGFR (human) (UniProt P00533).
Assay [7] has as its target KIT (human) (UniProt P10721).
The test system of assay [8] is FLT3 (human), P36888 [K663Q].
Assay [9] concerns the target TIE1 (human) (UniProt P35590).
The target of assay [10] is PIK3CG (human) (UniProt P48736).
Assay [11] has as its target MAST1 (human) (UniProt Q9Y2H9).
Assay [12] addresses OXSR1 (human) (UniProt O95747).
Assay [13] has as its system PIK3CA (human), P42336 [Q546K].
In assay [14] the target is HIPK4 (human) (UniProt Q8NE63).
Assay [15] addresses CDKL3 (human) (UniProt Q8IVW4).
Assay [16] has as its target PIK3C2G (human) (UniProt O75747).
Assay [17] relates to PIK3CA (human), P42336 [C420R].
Chain of PIK3CA (human), P42336 [C420R] (P42336 whole entry C420R, looked up): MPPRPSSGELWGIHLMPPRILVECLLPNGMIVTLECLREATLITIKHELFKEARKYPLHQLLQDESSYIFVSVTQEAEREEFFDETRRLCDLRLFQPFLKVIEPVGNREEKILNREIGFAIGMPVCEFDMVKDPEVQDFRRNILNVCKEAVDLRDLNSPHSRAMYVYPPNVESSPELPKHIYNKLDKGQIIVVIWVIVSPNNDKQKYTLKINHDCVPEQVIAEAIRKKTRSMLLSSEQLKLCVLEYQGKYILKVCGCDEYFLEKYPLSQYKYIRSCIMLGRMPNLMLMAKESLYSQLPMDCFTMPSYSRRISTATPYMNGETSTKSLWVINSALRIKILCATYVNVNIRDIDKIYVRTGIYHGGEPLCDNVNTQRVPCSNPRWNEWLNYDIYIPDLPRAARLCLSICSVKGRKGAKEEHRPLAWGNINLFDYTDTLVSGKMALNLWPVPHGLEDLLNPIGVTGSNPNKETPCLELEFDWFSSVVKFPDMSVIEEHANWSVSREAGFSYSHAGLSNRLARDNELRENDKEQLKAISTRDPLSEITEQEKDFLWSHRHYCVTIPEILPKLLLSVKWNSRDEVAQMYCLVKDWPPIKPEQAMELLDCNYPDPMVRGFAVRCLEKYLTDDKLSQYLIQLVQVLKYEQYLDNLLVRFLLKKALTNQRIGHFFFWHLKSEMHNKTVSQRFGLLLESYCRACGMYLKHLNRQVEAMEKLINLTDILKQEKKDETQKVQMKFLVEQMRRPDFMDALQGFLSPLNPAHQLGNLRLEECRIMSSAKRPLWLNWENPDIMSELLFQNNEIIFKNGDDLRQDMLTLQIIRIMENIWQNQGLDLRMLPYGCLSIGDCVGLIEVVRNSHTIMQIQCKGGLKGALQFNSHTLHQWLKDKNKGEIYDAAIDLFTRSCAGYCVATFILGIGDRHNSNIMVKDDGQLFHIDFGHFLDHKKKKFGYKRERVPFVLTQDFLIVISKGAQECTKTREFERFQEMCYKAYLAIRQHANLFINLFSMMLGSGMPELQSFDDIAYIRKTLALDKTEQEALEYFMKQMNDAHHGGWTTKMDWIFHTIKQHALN
For assay [18], the target named is STK39 (human) (UniProt Q9UEW8).
In assay [19] the target is NIM1 (human) (UniProt Q8IY84).
Chain of NIM1 (human) (Q8IY84 whole entry, looked up): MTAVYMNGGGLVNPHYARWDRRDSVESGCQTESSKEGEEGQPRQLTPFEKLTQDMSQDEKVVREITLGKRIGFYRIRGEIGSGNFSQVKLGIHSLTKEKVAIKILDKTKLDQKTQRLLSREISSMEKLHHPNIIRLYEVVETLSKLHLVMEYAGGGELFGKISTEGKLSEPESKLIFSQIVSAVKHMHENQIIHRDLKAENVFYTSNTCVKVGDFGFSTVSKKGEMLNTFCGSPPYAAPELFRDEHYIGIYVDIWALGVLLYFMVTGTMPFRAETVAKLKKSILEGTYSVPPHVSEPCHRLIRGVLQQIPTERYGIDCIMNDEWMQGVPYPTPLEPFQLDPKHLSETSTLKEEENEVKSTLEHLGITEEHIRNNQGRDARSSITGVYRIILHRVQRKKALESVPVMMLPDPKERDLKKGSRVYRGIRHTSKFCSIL
The target of assay [20] is ERBB3 (human) (UniProt P21860).
Assay [21] has as its system PIK3CA (human), P42336 [H1047Y].
Assay [22] addresses ICK (human) (UniProt Q9UPZ9).
In assay [23] the target is YSK4 (human) (UniProt Q56UN5).
Chain of YSK4 (human) (Q56UN5 whole entry, looked up): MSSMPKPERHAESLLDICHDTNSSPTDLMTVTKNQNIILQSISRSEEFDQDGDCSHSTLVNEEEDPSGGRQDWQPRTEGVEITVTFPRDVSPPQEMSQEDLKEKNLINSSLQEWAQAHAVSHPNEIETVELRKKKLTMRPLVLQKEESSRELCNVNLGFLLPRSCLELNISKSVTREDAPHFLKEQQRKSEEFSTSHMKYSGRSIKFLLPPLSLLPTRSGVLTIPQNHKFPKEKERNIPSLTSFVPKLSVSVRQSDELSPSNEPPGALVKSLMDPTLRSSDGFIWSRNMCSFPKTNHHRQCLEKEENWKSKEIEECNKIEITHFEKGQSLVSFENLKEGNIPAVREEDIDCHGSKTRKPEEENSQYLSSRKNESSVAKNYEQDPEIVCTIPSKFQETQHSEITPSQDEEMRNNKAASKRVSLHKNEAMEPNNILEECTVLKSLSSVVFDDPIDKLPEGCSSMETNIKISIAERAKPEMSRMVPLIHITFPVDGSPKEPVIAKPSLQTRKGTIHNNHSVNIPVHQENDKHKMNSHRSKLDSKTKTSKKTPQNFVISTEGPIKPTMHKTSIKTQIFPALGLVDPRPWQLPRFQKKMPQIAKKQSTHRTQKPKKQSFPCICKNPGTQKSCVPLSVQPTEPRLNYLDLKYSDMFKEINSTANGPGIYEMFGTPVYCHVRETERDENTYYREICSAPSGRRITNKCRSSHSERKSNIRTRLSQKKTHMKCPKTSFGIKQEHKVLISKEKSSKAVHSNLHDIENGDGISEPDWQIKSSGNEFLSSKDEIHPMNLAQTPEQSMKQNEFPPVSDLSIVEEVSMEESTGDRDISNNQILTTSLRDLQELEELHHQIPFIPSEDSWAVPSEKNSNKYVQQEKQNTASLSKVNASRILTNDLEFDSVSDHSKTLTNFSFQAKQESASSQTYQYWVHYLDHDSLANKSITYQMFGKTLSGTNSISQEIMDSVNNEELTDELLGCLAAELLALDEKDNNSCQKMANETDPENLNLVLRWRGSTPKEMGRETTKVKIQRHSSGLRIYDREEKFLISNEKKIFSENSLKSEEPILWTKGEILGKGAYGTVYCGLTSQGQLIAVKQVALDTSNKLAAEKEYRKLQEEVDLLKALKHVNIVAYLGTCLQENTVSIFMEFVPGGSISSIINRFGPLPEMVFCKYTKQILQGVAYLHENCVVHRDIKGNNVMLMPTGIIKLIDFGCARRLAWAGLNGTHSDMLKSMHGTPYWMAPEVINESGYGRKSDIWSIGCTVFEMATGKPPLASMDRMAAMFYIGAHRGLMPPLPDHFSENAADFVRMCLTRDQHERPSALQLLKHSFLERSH
The target of assay [24] is DYRK2 (human) (UniProt Q92630).
The target in assay [25] is GRK7 (human) (UniProt Q8WTQ7).
The target in assay [26] is MAP3K13 (human) (UniProt O43283).
For assay [27], the target named is DYRK1A (human) (UniProt Q13627).
For assay [28], the target named is ERN1 (human) (UniProt O75460).
The target of assay [29] is SBK1 (human) (UniProt Q52WX2).

Chain of KIT (human) (P10721 whole entry, looked up): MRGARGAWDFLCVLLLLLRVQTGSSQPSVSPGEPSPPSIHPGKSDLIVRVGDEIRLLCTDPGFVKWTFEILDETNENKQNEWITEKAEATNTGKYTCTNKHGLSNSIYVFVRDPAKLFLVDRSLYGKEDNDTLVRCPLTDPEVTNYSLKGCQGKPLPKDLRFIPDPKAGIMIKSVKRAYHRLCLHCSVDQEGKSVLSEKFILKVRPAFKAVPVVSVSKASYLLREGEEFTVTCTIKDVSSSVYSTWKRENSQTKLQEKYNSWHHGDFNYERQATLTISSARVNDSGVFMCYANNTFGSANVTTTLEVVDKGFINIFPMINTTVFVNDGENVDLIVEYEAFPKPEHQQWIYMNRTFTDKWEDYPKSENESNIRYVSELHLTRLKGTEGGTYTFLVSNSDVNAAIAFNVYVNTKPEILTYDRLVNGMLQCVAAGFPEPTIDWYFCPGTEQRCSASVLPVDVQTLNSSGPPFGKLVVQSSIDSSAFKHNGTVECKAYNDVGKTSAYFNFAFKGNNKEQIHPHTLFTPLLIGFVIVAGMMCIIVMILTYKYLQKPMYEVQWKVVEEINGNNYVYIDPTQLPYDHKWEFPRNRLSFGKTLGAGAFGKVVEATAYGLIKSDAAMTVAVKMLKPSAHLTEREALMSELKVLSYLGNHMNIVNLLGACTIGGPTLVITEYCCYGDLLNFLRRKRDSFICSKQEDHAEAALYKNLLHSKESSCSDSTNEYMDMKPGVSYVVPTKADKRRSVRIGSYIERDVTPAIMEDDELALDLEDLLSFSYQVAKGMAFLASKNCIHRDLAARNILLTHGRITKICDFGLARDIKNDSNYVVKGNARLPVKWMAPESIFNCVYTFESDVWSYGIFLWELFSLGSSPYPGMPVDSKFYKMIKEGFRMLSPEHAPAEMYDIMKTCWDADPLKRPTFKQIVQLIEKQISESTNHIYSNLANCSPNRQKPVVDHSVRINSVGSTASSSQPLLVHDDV
Chain of TIE1 (human) (P35590 whole entry, looked up): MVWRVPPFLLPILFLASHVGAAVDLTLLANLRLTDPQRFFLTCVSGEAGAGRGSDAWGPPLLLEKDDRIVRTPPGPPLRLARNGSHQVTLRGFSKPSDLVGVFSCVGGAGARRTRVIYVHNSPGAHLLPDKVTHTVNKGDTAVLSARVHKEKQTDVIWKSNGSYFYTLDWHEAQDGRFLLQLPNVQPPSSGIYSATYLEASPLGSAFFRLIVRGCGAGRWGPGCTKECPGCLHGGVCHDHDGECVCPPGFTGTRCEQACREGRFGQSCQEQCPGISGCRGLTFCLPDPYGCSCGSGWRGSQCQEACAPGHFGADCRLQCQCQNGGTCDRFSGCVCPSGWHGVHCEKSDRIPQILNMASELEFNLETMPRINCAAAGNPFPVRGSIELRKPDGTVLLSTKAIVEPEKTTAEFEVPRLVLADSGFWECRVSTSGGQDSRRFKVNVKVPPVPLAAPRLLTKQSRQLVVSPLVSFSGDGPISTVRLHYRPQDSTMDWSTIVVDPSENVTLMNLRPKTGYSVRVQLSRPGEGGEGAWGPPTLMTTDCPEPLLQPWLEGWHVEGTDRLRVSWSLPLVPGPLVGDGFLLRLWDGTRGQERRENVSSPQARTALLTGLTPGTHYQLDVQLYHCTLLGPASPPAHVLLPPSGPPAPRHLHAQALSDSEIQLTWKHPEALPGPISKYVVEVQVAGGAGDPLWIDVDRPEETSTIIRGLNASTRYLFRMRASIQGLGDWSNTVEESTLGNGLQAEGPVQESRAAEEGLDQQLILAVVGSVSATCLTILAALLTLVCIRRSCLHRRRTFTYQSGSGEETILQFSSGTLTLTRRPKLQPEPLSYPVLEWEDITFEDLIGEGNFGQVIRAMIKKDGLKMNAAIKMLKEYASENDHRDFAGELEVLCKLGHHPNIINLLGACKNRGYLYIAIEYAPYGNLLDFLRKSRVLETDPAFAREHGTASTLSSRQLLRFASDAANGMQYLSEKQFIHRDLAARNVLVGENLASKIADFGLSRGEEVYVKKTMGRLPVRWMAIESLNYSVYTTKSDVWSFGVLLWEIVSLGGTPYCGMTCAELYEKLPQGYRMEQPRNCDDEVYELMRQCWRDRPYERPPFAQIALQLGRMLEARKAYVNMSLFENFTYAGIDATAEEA
Chain of PIK3CA (human), P42336 [H1047Y] (P42336 whole entry H1047Y, looked up): as the sequence (P42336 whole entry C420R, looked up) above, with R420C, H1047Y counted along it
Chain of PIK3CA (human), P42336 [E545K] (P42336 whole entry E545K, looked up): as the sequence (P42336 whole entry C420R, looked up) above, with R420C, E545K counted along it
Chain of PIK3CA (human), P42336 [Q546K] (P42336 whole entry Q546K, looked up): as the sequence (P42336 whole entry C420R, looked up) above, with R420C, Q546K counted along it

As to `C=CC(=O)Nc1cccc(Oc2nc(Nc3ccc(N4CCN(C)CC4)cc3OC)ncc2Cl)c1`, the kinase still bound, per cent of control in [1] was determined as 100%; in assay [2], 0.2%; in assay [3] it was 100%; in [4], 100%; in assay [5], 0.3%; in assay [6] it was 0.1%. Also, the kinase still bound, per cent of control in assay [7] was determined as 34%; in assay [8], 1.1%; in [9], 100%; in assay [10] it was 100%.

For `Cc1ccc(C(=O)Nc2cccc(C(F)(F)F)c2)cc1Nc1cncc(C(N)=O)c1`, the kinase still bound, per cent of control in assay [1] worked out at 0.1%; in assay [2], 100%; in assay [3] it was 2%; in assay [4] it was 100%; in assay [5] it was 100%; in [6] it was 100%. Also, the kinase still bound, per cent of control stood at 0% in assay [7], 100% in assay [8], 100% in [9] and 100% in assay [10].

As to `COc1cc(C(=O)NC2CCN(C)CC2)ccc1Nc1ncc2c(n1)N(C1CCCC1)C(C)CC(=O)N2C` (stereo unspecified), the kinase still bound, per cent of control in assay [1], in assay [2], in [4], in assay [5], in assay [6] and in assay [7] was 100% throughout. Also, the kinase still bound, per cent of control in assay [8], in [9] and in assay [10] was 100% throughout.

Consider `OCCCNc1cc(-c2ccnc(Nc3cccc(Cl)c3)n2)ccn1`, for which the kinase still bound, per cent of control came out at 100% in [11]; 100% in [12]; 100% in assay [13]; 14% in assay [14]; 100% in assay [1]; 100% in assay [2]. Also, the kinase still bound, per cent of control in assay [15] is 5.4%; in assay [16] it was 100%; in [17], 100%; in [18], 100%; in [19], 100%; in [3], 100%. In addition, the kinase still bound, per cent of control amounted to 100% in assay [4]; 100% in assay [20]; 100% in [21]; 2.2% in assay [22]; 100% in assay [5]; 100% in assay [23]. Further, the kinase still bound, per cent of control in assay [24], in assay [6], in [25], in [7], in assay [26] and in [8] was 100% in each case. The kinase still bound, per cent of control was 100% in assay [9]; 7.8% in [27]; 100% in [28]; 100% in [29]; 100% in assay [10].

Take `COc1cc(C(=O)NC2CCN(C)CC2)ccc1Nc1ncc2c(n1)N(C1CCCC1)CCC(=O)N2C(C)C`: the kinase still bound, per cent of control in [11], in assay [12], in assay [13], in assay [14], in assay [1] and in assay [2] was 100% each time. In addition, the kinase still bound, per cent of control in assay [15], in [16], in assay [17], in assay [18], in assay [19] and in [4] was 100% throughout. Also, the kinase still bound, per cent of control in [20], in [21], in assay [22], in [5], in assay [23] and in assay [24] was 100% each time. Besides, the kinase still bound, per cent of control in assay [6], in assay [25], in [7], in assay [26], in assay [8] and in assay [9] was 100% each time. For the same compound, the kinase still bound, per cent of control in [27], in [28], in assay [29] and in assay [10] was 100% in each case.

Consider `CC[C@@H]1C(=O)N(C)c2cnc(Nc3ccc(C(=O)NC4CCN(C)CC4)cc3OC)nc2N1C1CCCC1`, for which the kinase still bound, per cent of control in [1], in assay [3], in assay [4], in assay [7], in [8] and in [9] was 100% each time. The same compound yielded a kinase still bound, per cent of control in assay [10] of 100%.

Turning to `Cn1c(=O)n(-c2ccc(C(C)(C)C#N)cc2)c2c3cc(-c4cnc5ccccc5c4)ccc3ncc21`, the kinase still bound, per cent of control in assay [11] was 100%; in assay [12], 100%; in assay [13], 3.8%; in [14], 100%; in assay [1], 100%; in assay [2], 100%. Further, the kinase still bound, per cent of control in assay [15] was found to be 100%; in assay [16], 4.4%; in assay [18], 100%; in assay [19] it was 100%; in [3], 100%; in [4] it was 3%. In addition, the kinase still bound, per cent of control in [20] came out at 100%; in assay [21] it was 6.2%; in assay [22] it was 100%; in assay [5], 100%; in [23], 29%; in [24] it was 100%. Further, the kinase still bound, per cent of control in assay [6], in assay [25], in [7], in assay [26], in assay [8] and in assay [9] was 100% in each case. Besides, the kinase still bound, per cent of control came out at 100% in assay [27], 100% in [28], 100% in assay [29] and 23% in [10].
